These results are taken from PubChem BioAssay (NCI).

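Method: 48-hour compound exposure of cells in 96-well plates, five concentrations, linear interpolation of endpoints. The concentration for full growth arrest is given as TGI.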

Experiment in all cases: growth of human tumour cells (NCI), 48 h
The test system of assay [1] is HCT-116 colon.
Assay [2] relates to 786-0 renal.
The test system of assay [3] is OVCAR-8 ovarian.
For assay [4], the system named is BT-549 breast.
In assay [5] the test system is TK-10 renal.
Assay [6] has as its system SNB-19 CNS.
Assay [7] has as its system HOP-92 NSCLC.
Assay [8] concerns SF-268 CNS.
In assay [9] the test system is UACC-62 melanoma.

Consider `CC(C)Oc1cccc(N2C(CCc3c[nH]c4ccc(Br)cc34)=NS(=O)(=O)c3cnccc32)c1`, for which the TGI in [1], in [2], in assay [3], in [4], in assay [5] and in assay [6] was more than 100 µM each time. Further, the TGI in [7], in assay [8] and in assay [9] was more than 100 µM in each case.
As for `O=C(/C=C\c1ccccc1)Oc1ccc(/C=C2\CCC/C(=C\c3ccc(OC(=O)/C=C\c4ccccc4)cc3)C2=O)cc1`, the TGI in [1], in [2], in assay [3], in [4], in [5] and in assay [6] was more than 100 µM in each case. In addition, the TGI in assay [7], in assay [8] and in [9] was more than 100 µM each time.
For the compound `O=c1[nH]c2c(Nc3c4ccccc4nc4ccccc34)c([N+](=O)[O-])c(Nc3c4ccccc4nc4ccccc34)c([N+](=O)[O-])c2[nH]1`, the TGI in assay [1] was 8.45 µM; in assay [2], more than 28.4 µM; in [3], 12.6 µM; in assay [4] it was 20.6 µM; in assay [5] it was more than 22.5 µM; in assay [6] it was 13.7 µM. In addition, the TGI is 4.74 µM in assay [7], 6.74 µM in assay [8] and 3.32 µM in assay [9].
With `C/C(=N\NC(=S)NC(C)(C)C)c1nc2ncccc2[nH]1`, the TGI was more than 100 µM in [1]; more than 100 µM in assay [2]; more than 100 µM in assay [3]; 20.3 µM in assay [4]; more than 100 µM in [5]; more than 90.5 µM in assay [6]. Moreover, the figures for the TGI in [7], in assay [8] and in [9] were 42.9 µM, more than 31.6 µM and 46.7 µM, respectively.
As to `O=C(OCCN=c1c2ccccc2ccc2ccccc12)c1cc([N+](=O)[O-])cc([N+](=O)[O-])c1`, the TGI in [1], in [2], in assay [3], in assay [4], in assay [5] and in assay [6] was more than 100 µM throughout. The TGI in assay [7], in [8] and in [9] was more than 100 µM throughout.
As for `CC(C)OC(=O)C(NC(=O)C(CC(=O)OCc1ccccc1)NC(=O)OCc1ccccc1)NC(=O)C1C(C)(C)CCC1(C)C` (configuration not stated), the TGI in assay [1] was 12 µM; in [2], 5.3 µM; in [3], 4.19 µM; in [4], 34.3 µM; in [5], 34.5 µM; in assay [6], 16.1 µM. In addition, the TGI was 24.1 µM in assay [7], 45.9 µM in assay [8] and 47.9 µM in assay [9].
Consider `C=CCOC(C)(C)C1=CCC(C)CC1` (configuration not stated), for which the TGI in [1], in assay [2], in assay [3], in assay [4], in [5] and in assay [6] was more than 100 µM throughout. Moreover, the TGI in assay [7], in assay [8] and in [9] was more than 100 µM throughout.
For `Clc1[nH]nc2ccccc12`, the TGI in [1], in assay [2], in assay [3], in assay [4], in [5] and in assay [6] was more than 100 µM throughout. Moreover, the TGI in [7], in assay [8] and in assay [9] was more than 100 µM each time.
`CC(C)CNP(=O)(NCC(C)C)Oc1ccc(CC(NC(=O)OCc2ccccc2)C(=O)OCc2ccccc2)cc1` (configuration not stated): the TGI in assay [1] was 37.6 µM; in assay [2], 28.9 µM; in assay [3], 32.7 µM; in assay [4], 52.4 µM; in assay [5] it was more than 100 µM; in assay [6], 57.8 µM. In addition, the values for the TGI in assay [7], in assay [8] and in assay [9] were more than 100 µM, 33 µM and 34.1 µM, respectively.
As for `CCOC(=O)N1CCNCCN(C(=O)OCC)CCNCC1`, the TGI in assay [1], in assay [2], in [3], in assay [4], in assay [5] and in assay [6] was more than 100 µM in each case. The TGI in assay [7], in assay [8] and in assay [9] was more than 100 µM each time.
As for `O=c1[nH]nc(Nc2ccc(Cl)cc2)c2nnn(C3CCCCC3)c12`, the TGI in [1] was more than 100 µM; in assay [2], 31.4 µM; in [3], 34.3 µM; in [4], more than 100 µM; in assay [5], more than 100 µM; in [6], more than 100 µM. Moreover, the TGI in [7] was 66 µM; in assay [8], more than 100 µM; in assay [9] it was more than 100 µM.
As for `CC(C)(C)C(=O)c1c(O)c2ccccc2c2ccccc2c1=O`, the TGI in assay [1] is more than 100 µM; in assay [2], more than 100 µM; in [3] it was more than 100 µM; in [4] it was 91.6 µM; in assay [5], more than 100 µM; in assay [6], more than 100 µM. The TGI in [7], in assay [8] and in [9] was more than 100 µM each time.
Regarding `OCCN1CCN(c2nc(N3CCCC3)c3nc(Cl)c(NCc4ccccc4)nc3n2)CC1`, the TGI in assay [1] amounted to 17.6 µM; in assay [2] it was 4.23 µM; in [3], 23.5 µM; in [4] it was 20.7 µM; in assay [5] it was 19.2 µM; in assay [6], 21.3 µM. For the same compound, the TGI is 16.8 µM in assay [7], 23.2 µM in assay [8] and 9.26 µM in assay [9].
In the case of `Cc1ccc(S(=O)(=O)NC(=O)Nc2ccc(C(=O)O)cc2)cc1`, the TGI in assay [1], in [2], in assay [3], in [4], in assay [5] and in [6] was more than 100 µM throughout. In addition, the TGI in [7], in assay [8] and in assay [9] was more than 100 µM in each case.
For `CC(=O)Oc1cc2c(cc1OCC(F)(F)F)[C@H]1CC[C@]3(C)[C@@H](OC(C)=O)CC[C@H]3[C@@H]1CC2=O`, the TGI in assay [1] is 55 µM; in assay [2], more than 100 µM; in [3], 57 µM; in assay [4], more than 77.7 µM; in assay [5], 46.2 µM; in [6], more than 67 µM. For the same compound, the TGI in assay [7] is 40.2 µM; in [8], more than 77.4 µM; in assay [9], 42.6 µM.
On to `NC(=O)CSc1nc2ccccc2c(=O)n1N`, for which the TGI in assay [1], in [2], in [3], in assay [4], in assay [5] and in [6] was more than 100 µM each time. For the same compound, the TGI in assay [7], in assay [8] and in assay [9] was more than 100 µM throughout.
Consider `CCc1c(O)nc(Nc2nc3ccccc3[nH]2)[nH]c1=O`, for which the TGI in assay [1], in [2], in assay [3], in [4], in assay [5] and in assay [6] was more than 100 µM throughout. Further, the TGI in assay [7], in assay [8] and in assay [9] was more than 100 µM in each case.
In the case of `O=C1Nc2noc(=O)nc2NO1`, the TGI in assay [1], in [2], in assay [3], in assay [4], in assay [5] and in assay [6] was more than 200 µM in each case. Besides, the TGI in assay [7], in assay [8] and in assay [9] was more than 200 µM each time.
On to `COc1ccc2oc(=O)c(-c3cc4c(c(C)n3)c(=O)oc3ccc(OC)cc34)cc2c1`, for which the TGI in assay [1] was more than 100 µM; in [2] it was 4.34 µM; in [3] it was more than 100 µM; in assay [4] it was more than 100 µM; in assay [5], more than 100 µM; in assay [6], 57.6 µM. Besides, the TGI in assay [7], in assay [8] and in assay [9] was more than 100 µM each time.
Turning to `O=c1c2ccc(Cl)cc2oc2c(CSc3ccccc3)cccc12`, the TGI in assay [1] was more than 100 µM; in assay [2], more than 100 µM; in assay [3], more than 100 µM; in assay [4], more than 78.7 µM; in assay [5] it was more than 100 µM; in assay [6], more than 86.5 µM. The figures for the TGI in assay [7], in [8] and in assay [9] were more than 74.9 µM, more than 100 µM and more than 83.3 µM, respectively.
On to `COc1cc2c(cc1O)C(Cc1ccc(OCc3ccccc3)c(OCc3ccccc3)c1)N(C(=O)NCCc1ccccc1)CC2` (configuration not stated), for which the TGI in assay [1], in assay [2], in assay [3], in assay [4], in [5] and in assay [6] was more than 100 µM each time. The TGI in assay [7], in assay [8] and in [9] was more than 100 µM throughout.
For `CC(=O)O[C@H]1CC[C@@H](OC(C)=O)[C@H]2[C@H](O)[C@H](O)[C@@H]1n1c(=O)n(-c3ccccc3)c(=O)n12`, the TGI in [1], in assay [2], in assay [3], in assay [4], in assay [5] and in [6] was more than 100 µM in each case. The TGI in [7], in assay [8] and in [9] was more than 100 µM throughout.
With `CCCCCCCCCCCC1=C(O)C(=O)C(CC2=C(O)C(=O)C(CCCCCCCCCCC)=C(O)C2=O)=C(O)C1=O`, the TGI in assay [1] was more than 100 µM; in [2], more than 100 µM; in assay [3] it was more than 100 µM; in [4] it was more than 100 µM; in assay [5] it was more than 100 µM; in [6], 73.3 µM. Also, the results for the TGI in assay [7], in assay [8] and in assay [9] were 55.2 µM, more than 100 µM and more than 100 µM, respectively.
Regarding `COC(=O)CCC(C)[C@H]1CCC2C3CC[C@@H]4CC5(CC[C@]4(C)C3C[C@H](OC(C)=O)[C@@]21C)OOC1(CCCCC1)OO5` (some centres not stated), the TGI in assay [1], in assay [2], in assay [3], in [4], in assay [5] and in assay [6] was more than 100 µM throughout. Moreover, the TGI in assay [7], in assay [8] and in assay [9] was more than 100 µM throughout.
`CCNC(=S)N/N=C(/C)c1cccc(/C(C)=N\NC(=S)NCC)n1`: the TGI in assay [1] is 13.1 µM; in assay [2], more than 100 µM; in [3], 16.9 µM; in assay [4], more than 100 µM; in [5], 19.1 µM; in assay [6], more than 100 µM. For the same compound, the TGI in assay [7] was 24.6 µM; in assay [8], more than 100 µM; in assay [9] it was 27.2 µM.
For the compound `O=C(O)[C@H]1NC[C@H]2C(Br)=NO[C@@H]12`, the TGI in assay [1], in [2], in assay [3], in assay [4], in assay [5] and in assay [6] was more than 100 µM each time. In addition, the TGI in assay [7], in [8] and in [9] was more than 100 µM in each case.
`C[C@H]1CCC/C=C/[C@@H]2C[C@H](OC3OC(CO)C(O)C(O)C3O)C[C@H]2[C@H](O)/C=C/C(=O)O1` (some centres not stated): the TGI in assay [1], in [2], in assay [3], in assay [4], in assay [5] and in assay [6] was more than 100 µM each time. The TGI in assay [7], in assay [8] and in [9] was more than 100 µM each time.
Regarding `Cc1ccc(C(=O)Nc2ccc(CP(=O)(O)O)cc2CP(=O)(O)O)cc1N`, the TGI in assay [1], in [2], in assay [3], in assay [4], in assay [5] and in [6] was more than 100 µM throughout. Also, the TGI in assay [7], in [8] and in assay [9] was more than 100 µM throughout.
